Here are results for 18 compounds from patent US6664231B1, “Anti-fungal peptides” (priority 1993, dated 2003).

Square brackets hold non-standard residues; d marks the D form. Peptide text beside a SMILES is read from it. * marks the point of attachment. d2Nal = N[C@H](Cc1ccc2ccccc2c1)C(=O)O; Lauroyl = CCCCCCCCCCCC(=O)*; Orn = NCCC[C@H](N)C(=O)O; Dab = NCC[C@H](N)C(=O)O Bounds are passed on as bounds.

In series [1] the test system is C. albicans (CA-1, Strain SLU-1). Kind of series: Radial diffusion assay. It is filed as cell-based, Candida albicans. The conditions noted are these: pmoles of peptide added to well to achieve a 30 mm^2 zone, PROBIT analysis, crude or purified (P′) peptide. The gist of the method: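 Peptides, serially diluted 2-fold in D-PBS (top ~1 mg/mL), diffused 3 h at 37° C into pH 7.4 phosphate-buffered agarose seeded with 1×10^6 CFU/mL yeast, before overnight growth under a 6% Sabouraud overlayer. Net inhibition zones measured after Coomassie staining; PROBIT fit of log pmol vs area gave pmol for 30 mm^2.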

Another series in a line: in vitro. It is filed as in vitro ADME, rat or human serum. Conditions: half-life of peptide in serum as detected by HPLC analysis; for half-life at 0.5 mg/mL: serum, read-out: HPLC Peptide in Serum t ½ (converted). As for the experimental part: (§1) For these serum stability experiments, peptides were prepared by solid phase peptide sythesis and purified to 94% or greater purity as described in Example 1. Blood was collected from metaphane anesthesized rats by aortic bleed into Vacutainer™ tubes and allowed to clot at room temperature for approximately 30 minutes, then centrifuged at 3000 rpm (about 1000×g) for 10 minutes at room temperature and the serum aspirated. In addition, frozen human serum (North American Biologics, Inc., Miami, Fla., cat. no. 2140, lot no. 94115) was thawed at room temperature and filtered through a 0.45 μm membrane before use.
(§2) A 1 mg/mL solution of an exemplary XMP peptide to be tested was added to an equal volume of either rat or human serum described above and maintained at 37° C. At 0, 1, 2, and 4 hours, 100 μL were removed and processed by solid phase extraction for HPLC analysis as follows. Serum samples were prepared for HPLC using C-18 Sep-Pak cartridges (1 mL cartridge with 100 mg of sorbent, Waters Corp., Milford, Mass.). One hundred μL of serum sample were added to an equal volume of 1% TFA and mixed for 30 seconds on a Vortex mixer. The sample was then applied to a C-18 Sep-Pak cartridge that had been conditioned by washing with 1 mL of methanol followed by 1 mL Milli-Q water. Weakly reed components were eluted by washing with 1 mL of 0. 1% TFA. The bound peptide was eluted with two volumes of 250 μL 80% acetonitrile/0.065% TFA.
The material eluted from the Sep-Pak cartridge was analyzed on a Michrom Ultaafast Microprotein Analyzer equipped with a 150 mm×1 mm, 5μ particle, 300 Å pore C-8 Zorbax column. The column oven was set to 40° C., the flow rate was 100 μL/minute, and injection volumes were typically 5-10 μL. HPLC was performed using 5% acetonitrile/0.1% TFA in water as mobile phase A, and 80% acetonitrile/0.065% TFA as mobile phase B. The eluate was monitored spectiophotometrically at 214 nm. Peptide standards were dissolved in mobile phase A at 0. 1 mg/mL. The gradient was 25-35% B/10 minutes followed by a 5 minute wash step of 100% B and reequilibration at 25% B for 10 minutes.

A short description of series [2]: Serum stability, anti-fungal activity after serum incubation by radial diffusion bioassay. The conditions noted are these: Activity in Serum t ½ (hr.). It is filed as in vitro ADME, rat or human serum. As to the method:
as §1, §2
(§3) The peptides identified and purified after serum incubation as described above were subjected to N-terminal peptide sequencing performed on an Applied Biosystems Model 477A/120A sequencer and to electrospray ionization mass spectrometry (ESI/MS) performed using a VG Biotech Bio-Q Mass Spectrometer. In addition, the peptides identified and purified after serum incubation as described above were also tested for their anti-fungal activity in a radial diffusion bioassay with Candida albicans SLU-1 strain as described in Example 2.

Series [3] relates to Candida albicans SLU-1 strain. The description is as above. In kind it is in vitro ADME, rat or human serum. As to the method: as §1, §2, §3
In series [4] the test system is mouse RAW 264.7 cells incubated with E. coli O113 LPS. The conditions noted are these: RAW 264.7 cells with E. coli O113 LPS; concentration reversing LPS growth inhibition by 50%.
The next series has as its system mouse RAW 264.7 cells. The conditions noted are these: RAW 264.7 cell growth inhibited by 50%.

Regarding H-PWAIQLFHKK-NH2 [XMP.387], the “C. albicans pmol/30 mm^2 zone” value in series [1] is listed as 82 pmol/30 mm^2 zone. The half-life at 0.5 mg/mL in the series “in vitro” was 2.8 h; in series [2], 2.3 h.

For the compound H-KKWLIQLKKK-NH2 [XMP.349], the “C. albicans pmol/30 mm^2 zone” value in series [1] turned out to be 120 pmol/30 mm^2 zone. Also, the results for the half-life at 0.5 mg/mL (in “in vitro”; in series [2]) were 1.4 h and 3.3 h, respectively.

With `CC[C@@H](C)[C@@H](NC(=O)[C@@H](C)NC(=O)[C@@H](Cc1c[nH]c2ccccc12)NC(=O)[C@@H](CCCCN)NC(=O)[C@H](N)CCCCN)C(=O)N[C@H](CCC(N)=O)C(=O)N[C@H](CC(C)C)C(=O)N[C@H](CCCCN)C(=O)N[C@H](CCCCN)C(N)=O` [XMP.375] (H-[dK][dK][dW][dA][dI][dQ][dL][dK][dK]-NH2), in series [1], the “C. albicans pmol/30 mm^2 zone” value was found to be 123 pmol/30 mm^2 zone. Further, the “HPLC Peptide in Serum t ½ (hr.)” value in the series “in vitro” is given as “indefinite”. Besides, in series [3], the “Activity in Serum t ½ (hr.)” value was “indefinite”.

As to `CC[C@H](C)[C@H](NC(=O)[C@H](CC(C)C)NC(=O)[C@H](Cc1c[nH]c2ccccc12)NC(=O)[C@H](CCCCN)NC(=O)[C@H]1CCCN1)C(=O)N[C@@H](CCC(N)=O)C(=O)N[C@@H](CC(C)C)C(=O)N[C@@H](CCCCN)C(=O)N[C@@H](CCCCN)C(N)=O` [XMP.334], the “C. albicans pmol/30 mm^2 zone” value in series [1] is 1,449 pmol/30 mm^2 zone; in series [1] (listed as XMP.334P′), 1,065 pmol/30 mm^2 zone. The half-life at 0.5 mg/mL in the series “in vitro” is 3.2 h; in series [2], 4.7 h.

As for H-KKWLIQAKK-NH2 [XMP.345], the “C. albicans pmol/30 mm^2 zone” value in series [1] was 1,211 pmol/30 mm^2 zone. For the same compound, the half-life at 0.5 mg/mL in the series “in vitro” is 1.4 h; in series [2] it was 2.7 h.

`CC[C@H](C)[C@H](NC(=O)[C@H](CC(C)C)NC(=O)[C@@H](Cc1ccc2ccccc2c1)NC(=O)[C@H](CCCCN)NC(=O)[C@@H](N)CCCCN)C(=O)N[C@@H](CC(C)C)C(=O)N[C@@H](CC(C)C)C(=O)N[C@@H](CCCCN)C(=O)N[C@@H](CCCCN)C(N)=O` [XMP.347] (H-KK[d2Nal]LILLKK-NH2): the “C. albicans pmol/30 mm^2 zone” value in series [1] was 391 pmol/30 mm^2 zone. Further, the half-life at 0.5 mg/mL in the series “in vitro” is 2.5 h; in series [2], 5.2 h.

With `CC[C@H](C)[C@H](NC(=O)[C@H](CC(C)C)NC(=O)[C@H](Cc1c[nH]c2ccccc12)NC(=O)[C@H](CCCCN)NC(C)=O)C(=O)N[C@@H](CCN)C(=O)N[C@@H](CC(C)C)C(=O)N[C@@H](Cc1ccccc1)C(=O)N[C@@H](Cc1c[nH]cn1)C(=O)N[C@@H](CCCCN)C(=O)N[C@@H](CCCCN)C(N)=O` [XMP.372] (Ac-KWLI[Dab]LFHKK-NH2), the “C. albicans pmol/30 mm^2 zone” value in series [1] is 328 pmol/30 mm^2 zone. Moreover, the half-life at 0.5 mg/mL was 6.6 h in “in vitro” and 1.4 h in series [2].

With H-PWLIQLFHKK-NH2 [XMP.355], the “C. albicans pmol/30 mm^2 zone” value is reported as 2,529 pmol/30 mm^2 zone in series [1] and 218 pmol/30 mm^2 zone in series [1] (listed as XMP.355P′). The half-life at 0.5 mg/mL in “in vitro” was 3.2 h; in series [2] it was 5.7 h.

H-KKWAIQLKK-NH2 [XMP.344]: in series [1], the “C. albicans pmol/30 mm^2 zone” value is 251 pmol/30 mm^2 zone. For the same compound, the half-life at 0.5 mg/mL is 0.6 h in “in vitro” and 3.3 h in series [2].

With `CCCCCCCCCCCC(=O)N[C@@H](CCCCN)C(=O)N[C@@H](CCCCN)C(=O)N[C@@H](Cc1c[nH]c2ccccc12)C(=O)N[C@@H](C)C(=O)N[C@H](C(=O)N[C@@H](CCC(N)=O)C(=O)N[C@@H](CC(C)C)C(=O)N[C@@H](CCCCN)C(=O)N[C@@H](CCCCN)C(N)=O)[C@@H](C)CC` [XMP.411] (Lauroyl-KKWAIQLKK-NH2; C-terminus assumed), the half-life at 0.5 mg/mL in the series “in vitro” was 9.7 h; in series [2], 4.2 h. In addition, in series [4], the “In Vitro LPS Neutralization EC50” value is 2.94 ± 0.14 µg/mL. The “IC50 (toxicity/growth inhibition of peptide)” value with mouse RAW 264.7 cells was above 25 µg/mL.

H-KKPWAIQLKK-NH2 [XMP.379]: the “C. albicans pmol/30 mm^2 zone” value in series [1] is given as 547 pmol/30 mm^2 zone. For the same compound, the values for the half-life at 0.5 mg/mL (in “in vitro”; in series [2]) were 0.8 h and 0.3 h, respectively.

Consider `CC[C@H](C)[C@H](NC(=O)[C@H](CC(C)C)NC(=O)[C@@H](Cc1c[nH]c2ccccc12)NC(=O)[C@H](N)CCCCN)C(=O)N[C@@H](CCC(N)=O)C(=O)N[C@@H](CC(C)C)C(=O)N[C@@H](Cc1ccccc1)C(=O)N[C@@H](Cc1c[nH]cn1)C(=O)N[C@H](CCCCN)C(=O)N[C@H](CCCCN)C(N)=O` [XMP.363], for which the “C. albicans pmol/30 mm^2 zone” value in series [1] is 1,015 pmol/30 mm^2 zone; in series [1] (listed as XMP.363P′), 741 pmol/30 mm^2 zone. Also, the half-life at 0.5 mg/mL in “in vitro” was 11.8 h. In addition, in series [3], the “Activity in Serum t ½ (hr.)” value is listed as “indefinite”.

Regarding `CC[C@H](C)[C@H](NC(=O)[C@H](CC(C)C)NC(=O)[C@H](Cc1c[nH]c2ccccc12)NC(=O)[C@H](CCCCN)NC(C)=O)C(=O)N[C@@H](CCCN)C(=O)N[C@@H](CC(C)C)C(=O)N[C@@H](Cc1ccccc1)C(=O)N[C@@H](Cc1c[nH]cn1)C(=O)N[C@@H](CCCCN)C(=O)N[C@@H](CCCCN)C(N)=O` [XMP.370] (Ac-KWLI[Orn]LFHKK-NH2), in series [1], the “C. albicans pmol/30 mm^2 zone” value came out at 310 pmol/30 mm^2 zone. The half-life at 0.5 mg/mL in the series “in vitro” was 2.9 h; in series [2], 4.7 h.

For `CC[C@H](C)[C@H](NC(=O)[C@H](CC(C)C)NC(=O)[C@H](Cc1c[nH]c2ccccc12)NC(=O)[C@@H](N)CCCCN)C(=O)N[C@@H](CCCN)C(=O)N[C@@H](CC(C)C)C(=O)N[C@@H](Cc1ccccc1)C(=O)N[C@@H](Cc1c[nH]cn1)C(=O)N[C@@H](CCCCN)C(=O)N[C@@H](CCCCN)C(N)=O` [XMP.369] (H-KWLI[Orn]LFHKK-NH2), the “C. albicans pmol/30 mm^2 zone” value in series [1] is 993 pmol/30 mm^2 zone; in series [1] (listed as XMP.369P′) it was 877 pmol/30 mm^2 zone. Besides, the half-life at 0.5 mg/mL in “in vitro” was 0.6 h; in series [2] it was 1.4 h.

In the case of H-KKWLIQLFHKK-NH2 [XMP.352], in series [1], the “C. albicans pmol/30 mm^2 zone” value was determined as 354 pmol/30 mm^2 zone. Also, the half-life at 0.5 mg/mL in “in vitro” was 0.7 h; in series [2] it was 1.2 h.

Regarding `CC[C@@H](C)[C@@H](NC(=O)[C@@H](CCC(N)=O)NC(=O)[C@@H](CC(C)C)NC(=O)[C@@H](Cc1ccccc1)NC(=O)[C@@H](Cc1c[nH]cn1)NC(=O)[C@@H](CCCCN)NC(=O)[C@@H](CCCCN)NC(C)=O)C(=O)N[C@H](CC(C)C)C(=O)N[C@H](Cc1c[nH]c2ccccc12)C(=O)N[C@H](CCCCN)C(N)=O` [XMP.368], the “C. albicans pmol/30 mm^2 zone” value in series [1] amounted to 744 pmol/30 mm^2 zone. For the same compound, the half-life at 0.5 mg/mL in the series “in vitro” was 34.1 h; in series [2], 25.2 h.

On to H-GWLIQLFHKK-NH2 [XMP.388], for which, in series [1], the “C. albicans pmol/30 mm^2 zone” value was determined as 170 pmol/30 mm^2 zone. Besides, the half-life at 0.5 mg/mL was 0.4 h in the series “in vitro” and 1.4 h in series [2].

In the case of `CC[C@H](C)[C@H](NC(=O)[C@H](CC(C)C)NC(=O)[C@H](Cc1c[nH]c2ccccc12)NC(=O)[C@H](CCCCN)NC(=O)[C@@H]1CCCN1)C(=O)N[C@@H](CCC(N)=O)C(=O)N[C@@H](CC(C)C)C(=O)N[C@@H](CCCCN)C(=O)N[C@@H](CCCCN)C(N)=O` [XMP.335], the “C. albicans pmol/30 mm^2 zone” value in series [1] was 871 pmol/30 mm^2 zone; in series [1] (listed as XMP.335P′), 1,353 pmol/30 mm^2 zone. The results for the half-life at 0.5 mg/mL (in the series “in vitro”; in series [2]) were 2.9 h and 1.3 h, respectively.
